Consider one sequence from patent publication US10576145B2, “CD200 inhibitors and methods of use thereof” (REGENTS OF THE UNIVERSITY OF MINNESOTA, priority 2014, dated 2020).

Entries after “also recorded” stand apart in the source; their conditions may differ.

The test system of this experiment is EMT6 tumor bearing mice. Briefly: EMT6 breast carcinoma model: tumor lysate + CpG +/- competitive inhibitor, survival. It is filed as in vivo, BALB/c mice. Here is the method:
FIG. 6. Percent survival of mice inoculated with 1×10^6 EMT6 cells. To determine if our competitive inhibitors worked in other tumor models, mice were inoculated in the fat pad with 1×10^6 EMT6 cells. Specifically, mice were vaccinated with 65 μg of EMT6 tumor lysates+50 μg of adjuvant CpG and 50 μg of different completive inhibitors (6059, 4004, 4013 and 6061) and monitored for survival. Saline and tumor lysate+adjuvant CpG were used as controls.
FIGS. 19A-19B. Select CD200 antagonists enhance survival. (FIG. 19A) EMT6 tumor bearing mice were vaccinated with tumor lysate, CpG+/−CD200 antagonist 4004, 4013 or 6059. […] Log-rank analysis was used for survival.
Tumors were implanted into female C57BL/6 mice (6-8 wk old) (Jackson Laboratory) and maintained in a pathogen-free facility according to the guidelines of the University of Minnesota Animal Care and Use Committee. The GL261 orthotopic transplant model was established in C57BL/6 (B6) mice by inoculation with 15,000 GL261-Luc^+ cells in 1 μl of saline. Tumors were implanted stereotactically into the right striatum; coordinates were 2.5 mm lateral, 0.5 mm anterior of bregma, and 3 mm deep from the cortical surface of the brain^19. Tumor burden was determined by bioluminescent imaging. Light emitted from the tumors was quantified using Living Image software (Xenogen) and expressed as photons per second per centimeter squared per steradian (p/s/cm^2/sr). GL261 cells for tumor lysate vaccines were cultured in neural stem cell media consisting of DMEM/F12 (1:1) with L-glutamine, sodium bicarbonate, penicillin/streptomycin (100 U/ml), B27 and N2 supplements (Life Technologies), and 0.1 mg/ml Normocin (Invivogen). Cultures were maintained at 5% 02 and supplemented with 20 ng/ml EGF and FGF semiweekly (R&D Systems, Minneapolis, Minn.). […] Mice were euthanized when tumors reached 1000 mm^3. […] Tumor cells used to establish both models were cultured in DMEM containing 10% FBS, penicillin/streptomycin (100 U/ml), and 0.1 mg/ml Normocin (Invivogen) in atmospheric oxygen.

As to NTIGDGGCY [Antagonist 6059], the Survival result is “results translated to a breast carcinoma (EMT6) model; also recorded: significantly extended survival benefit”.
